Measured values from paper PMC6271476, “Synthesis, Anticancer Activity and UPLC Analysis of the Stability of Some New Benzimidazole-4,7-dione Derivatives” (Molecules, 2013).
Like-named read-outs stand apart in the source and are kept apart here.

Assays:
[1] = test system: human lung adenocarcinoma A549 cells
Experimental: (§1) The human lung adenocarcinoma A549 cell line, purchased from Health Protection Agency Culture Collections (ECACC, Salisbury, UK), was cultured in F12K medium (HyClone, Loughborough, UK) supplemented with 10% heat-inactivated foetal bovine serum (FBS), penicillin (10 U/mL) and streptomycin (10 µg/mL) in air with 5% CO2 at 37 °C. Hypoxic cells were obtained by culturing in a hypoxic incubator in 1% O2 and 5% CO2 at 37 °C for 24 h before treatment.
(§2) In order to determine the anticancer activity of the analysed compounds we evaluated the cell viability using THE WST-1 assay (Millipore, Billerica, MA, USA) according to the manufacturer’s instructions.
(§3) The absorbance was determined at 420 nm using a microplate reader (Synergy H1, Bio-Tek, Winooski, VT, USA) after 3 h of incubation at 37 °C.
(§4) In order to determine the anticancer activity of the analysed compounds we evaluated the cell viability using the WST-1 assay, which is based on the conversion of the tetrazolium salt WST-1 to formazan by cellular mitochondrial dehydrogenases. Therefore, the amount of formazan dye formed directly correlates with the number of live cells in the culture.
(§5) A549 cells were seeded in 96-well plates at a density of 5,000 cells/well and cultured under normoxic conditions. To investigate the effect of compounds on hypoxic cancer cells, A549 cells were exposed to hypoxia (1% O2) for 24 h before treatment. […] Normoxic and hypoxic cells were treated with different concentrations of the tested compounds or vehicle (0.2% DMSO) for control cells. The cell viability was assessed after a 48 h incubation under normoxic or hypoxic conditions with the compounds. Briefly, WST-1 reagent was added to the cells and the percentage (%) of cell viability related to control cells was calculated by the expression [A] test/[A] control × 100 where [A] test is the absorbance of the cells treated with compounds and [A] control is the absorbance of control cells.

[2] = test system: human lung adenocarcinoma A549 cells; test: WST-1 cell viability assay, growth inhibition of A549 cells under normoxia and hypoxia; settings: for inhibition of the cell growth / decrease of cell viability compared to control cells: compound at 10 µM, 48 h; for Differential cytotoxicity O/H (hypoxic/aerobic cytotoxicity coefficient): ratio IC50 normoxia / IC50 hypoxia, A549
Experimental: as §1, §2, §3, §4, §5

[3] = Stability (degradation kinetics, recovery) in different solvent environments by RP-UPLC; type: physicochemical; settings: for half-life at 0.1 mg/mL: read-out: degradation t1/2 (converted)
Experimental: Chromatographic purification was performed on silica gel plates (Merck F254, Darmstadt, Germany) with the indicated eluents. Chemicals and solvents were obtained from commercial sources. The UPLC system consisted of an Acquity Ultra Performance LC Waters H-class system (Waters, Corporation, Milford, MA, USA). Chromatographic separation was achieved on an Acquity UPLC HSS T3 column (1.8 µm × 2.1 × 50 mm). The chromatographic peaks were identified with the Waters PDA eλ Acquity UPLC Detector. Compound 5b was monitored at a wavelength of 261 nm and compound 6b at 289 nm. All chromatographic experiments were performed in an isocratic mode. The mobile phase consisted of a mixture of solvents of chromatographic purity, acetonitrile/buffer (30:70 v/v). Buffer was a 0.01 M mixture of ammonium formate and formic acid pH = 2.4. The flow rate was set to 0.5 mL/min and the oven temperature to 25 °C. Compound samples were weighed on analytical scales with an accuracy of 0.01 mg. All the samples were prepared in 5, 10 and 25 mL volumetric flasks. Solution volume injections of 1.5 µL were performed with the use of an autosampler. Each sample was analysed three times and the run time analysis was five minutes. All solutions were filtered through a 0.45 µm membrane filter. The final result was presented as an arithmetical mean. The control of the UPLC system and detection was achieved by the Empower 3 Waters® software. Solvents for UPLC analysis were of UPLC grade and obtained from J. T. Baker (Center Valley, PA, USA). The method was validated in terms of precision, accuracy, specificity, detectability, and stability for compounds 5b and 6b.
Stability: Each medium (1 mL, 0.2% DMSO, water, 0.9% NaCl, and HCl pH = 1.5) was added to 10 mL volumetric flasks containing products 5b and 6b (1 mg). The flasks were filled up with the mobile phase. Each solution was analysed at t0 and after 6, 24, 48, and 72 h. The obtained calibration curve was used for the determination of degradation kinetics of the compounds in the solvents. The degradation kinetic parameters: rate constant (k) and t1/2 (half-life) were calculated with the use of Equation (3), where c0 is the concentration at time zero, c is the remaining concentration, k is the rate constant (h^−1) and t is the time (h): […]

[4] = as above; type: physicochemical; settings: for half-life at 0.1 mg/mL: read-out: degradation t1/2 (converted); remark: listed apart in the source
[5] = read-out: IC50 A549 Hypoxia (H), A549 cells, hypoxia (1% O2, 24 h before treatment and during culture), 48 h incubation, WST-1, mean ± SD, n = 3
[6] = read-out: IC50 A549 Normoxia (O), A549 cells, normoxia, 48 h incubation, WST-1, mean ± SD, n = 3
[7] = Homo sapiens, A549, 48 h, read-out: IC50 A549 Normoxia (O), A549 cells, normoxia, 48 h incubation, WST-1, mean ± SD, n = 3
[8] = Homo sapiens, A549, read-out: IC50 A549 Hypoxia (H), A549 cells, hypoxia (1% O2, 24 h before treatment and during culture), 48 h incubation, WST-1, mean ± SD, n = 3

## 2-(4-Chlorophenyl)-1H-benzimidazol-4,7-dione N-oxide [Compound 6a]
[1]
  Differential cytotoxicity O/H (hypoxic/aerobic cytotoxicity coefficient): 3.28
[2]; normoxia
  inhibition of the cell growth / decrease of cell viability compared to control cells: 20%
[2]; [5]
  IC50: 35 ± 1.6 µM
[2]; [6]
  IC50: 116 ± 1.9 µM

## O=C1C=CC(=O)c2[nH]c(-c3ccc(Cl)cc3)nc21 [Compound 5a, 2-(4-Chlorophenyl)-1H-benzimidazol-4,7-dione]
[2]; [7]
  IC50: 30.2 ± 1.2 µM
[2]; [8]
  IC50: 36.1 ± 1.2 µM
[2]; normoxia
  inhibition of the cell growth / decrease of cell viability compared to control cells: approximately 33%
[2]
  Differential cytotoxicity O/H (hypoxic/aerobic cytotoxicity coefficient): 0.83

## O=C1C=CC(=O)c2[nH]c(-c3ccccc3[N+](=O)[O-])nc21 [Compound 5b, 2-(2-Nitrophenyl)-1H-benzimidazol-4,7-dione]
[3]; 0.2% DMSO
  degradation rate constant k: 0.0002 h⁻¹
  half-life at 0.1 mg/mL: 215 h
[3]; 0.9% NaCl
  degradation rate constant k: 0.0004 h⁻¹
  half-life at 0.1 mg/mL: 155 h
[3]; water, up to 72 h
  degradation: did not suffer any degradation
[3]; water, H2O
  half-life at 0.1 mg/mL: > 72 h
[4]; MeOH
  half-life at 0.1 mg/mL: > 72 h
[4]; methanol, up to 72 h
  degradation: did not suffer any degradation
[2]; [7]
  IC50: < 100 µM
[2]; [8]
  IC50: 47.4 ± 1.1 µM
[2]
  Differential cytotoxicity O/H (hypoxic/aerobic cytotoxicity coefficient): 2.13
[2]; [6]
  IC50: 100 ± 1.8 µM

## O=C1C=CC(=O)c2[nH]c(-c3ccc4c(c3)OCO4)nc21 [Compound 5c, 2-Benzo[1,3]dioxol-1H-benzimidazol-4,7-dione]
[2]; [7]
  IC50: 80.9 ± 1.9 µM
[2]; [8]
  IC50: 51.2 ± 1.5 µM
[2]
  Differential cytotoxicity O/H (hypoxic/aerobic cytotoxicity coefficient): 1.58

## O=C1C=CC(=O)c2[nH]c(-c3ccc4ccccc4c3)nc21 [Compound 5d, 2-Naphthyl-1H-benzimidazol-4,7-dione]
[2]
  Differential cytotoxicity O/H (hypoxic/aerobic cytotoxicity coefficient): 2.06
[2]; [5]
  IC50: 232.4 ± 1.4 µM

## O=C1C=CC(=O)c2c1[nH]c(-c1ccccc1[N+](=O)[O-])[n+]2[O-] [Compound 6b, 2-(2-Nitrophenyl)-1H-benzimidazol-4,7-dione N-oxide]
[3]; 0.2% DMSO
  degradation rate constant k: 0.00009 h⁻¹
  half-life at 0.1 mg/mL: 413 h
[3]; 0.9% NaCl
  degradation rate constant k: 0.0004 h⁻¹
  half-life at 0.1 mg/mL: 142 h
[3]; H2O
  degradation rate constant k: 0.0004 h⁻¹
[3]; water, H2O
  half-life at 0.1 mg/mL: 146 h
[4]; MeOH
  degradation rate constant k: 0.0002 h⁻¹
  half-life at 0.1 mg/mL: 161 h
[2]; [8]
  IC50: 116 ± 0.8 µM
[2]
  Differential cytotoxicity O/H (hypoxic/aerobic cytotoxicity coefficient): 4.31

## O=C1C=CC(=O)c2c1[nH]c(-c1ccc3c(c1)OCO3)[n+]2[O-] [Compound 6c, 2-Benzo[1,3]dioxol-1H-benzimidazol-4,7-dione N-oxide]
[2]; [7]
  IC50: 79.5 ± 1.9 µM
[2]; [8]
  IC50: 44 ± 2.5 µM
[2]
  Differential cytotoxicity O/H (hypoxic/aerobic cytotoxicity coefficient): 1.80

## O=C1C=CC(=O)c2c1[nH]c(-c1ccc3ccccc3c1)[n+]2[O-] [Compound 6d, 2-Naphthyl-1H-benzimidazol-4,7-dione N-oxide]
[2]
  Differential cytotoxicity O/H (hypoxic/aerobic cytotoxicity coefficient): 2.62
[2]; [5]
  IC50: 96.8 ± 1.9 µM

## Nc1n[n+]([O-])c2ccccc2[n+]1[O-] [Tirapazamine, reference compound]
[2]; [7]
  IC50: 166 µM
[2]; [8]
  IC50: 30 ± 1.5 µM
[2]; [6]
  IC50: 166.2 ± 1.6 µM
